Test results published in ChEMBL document CHEMBL1221222, “Analysis of the eukaryotic prenylome by isoprenoid affinity tagging” (Nat Chem Biol, 2009).
pKd: −log10 of the molar value. Active and inactive are the calls of the source.

How the values were obtained:
[1] = Binding affinity to GGTase-1 by NBD fluorescence assay
[2] = Binding affinity to RabGGTase by NBD fluorescence assay
[3] = Binding affinity to RabGGTase assessed as prenylation of Rab7 by SDS PAGE
[4] = Binding affinity to RabGGTase assessed as prenylation of Rab27 by SDS PAGE
[5] = Binding affinity to FTase assessed as prenylation of Ki-Ras by SDS PAGE
[6] = Binding affinity to GGTase-1 assessed as prenylation of RhoA by SDS PAGE
[7] = Binding affinity to FTase by X-ray crystallography
[8] = system: Protein farnesyltransferase subunit beta (Homo sapiens), P49356 [W102T,Y154T]; assay: Binding affinity to FTase W102T/Y154T mutant assessed as prenylation of Ki-Ras by Western blot analysis
[9] = system: Protein farnesyltransferase subunit beta (Homo sapiens), P49356 [W102T,Y154T]; assay: Binding affinity to FTase W102T/Y154T mutant assessed as prenylation of CFP-CAAX by Western blot analysis
[10] = system: Protein farnesyltransferase subunit beta (Homo sapiens), P49356 [W102T,Y154T]; assay: Binding affinity to FTase W102T/Y154T mutant assessed as prenylation of Ki-Ras by ESI-MS analysis
[11] = system: Protein farnesyltransferase subunit beta (Homo sapiens), P49356 [W102T,Y154T]; assay: Binding affinity to FTase W102T/Y154T mutant assessed as prenylation of CFP-CAAX by ESI-MS analysis
[12] = system: Protein farnesyltransferase subunit beta (Homo sapiens), P49356 [W102T]; assay: Binding affinity to FTase W102T mutant assessed as prenylation of Ki-Ras by Western blot analysis
[13] = system: Protein farnesyltransferase subunit beta (Homo sapiens), P49356 [W102T]; assay: Binding affinity to FTase W102T mutant assessed as prenylation of CFP-CAAX by Western blot analysis
[14] = system: Protein farnesyltransferase subunit beta (Homo sapiens), P49356 [W102T]; assay: Binding affinity to FTase W102T mutant assessed as prenylation of Ki-Ras by ESI-MS analysis
[15] = system: Protein farnesyltransferase subunit beta (Homo sapiens), P49356 [W102T]; assay: Binding affinity to FTase W102T mutant assessed as prenylation of CFP-CAAX by ESI-MS analysis
[16] = system: Protein farnesyltransferase subunit beta (Homo sapiens), P49356 [Y154T]; assay: Binding affinity to FTase Y154T mutant assessed as prenylation of Ki-Ras by Western blot analysis
[17] = system: Protein farnesyltransferase subunit beta (Homo sapiens), P49356 [Y154T]; assay: Binding affinity to FTase Y154T mutant assessed as prenylation of CFP-CAAX by Western blot analysis
[18] = system: Protein farnesyltransferase subunit beta (Homo sapiens), P49356 [Y154T]; assay: Binding affinity to FTase Y154T mutant assessed as prenylation of Ki-Ras by ESI-MS analysis
[19] = system: Protein farnesyltransferase subunit beta (Homo sapiens), P49356 [Y154T]; assay: Binding affinity to FTase Y154T mutant assessed as prenylation of CFP-CAAX by ESI-MS analysis
[20] = system: Protein farnesyltransferase subunit beta (Homo sapiens), P49356 [W102T,Y365F]; assay: Binding affinity to FTase W102T/Y365F mutant assessed as prenylation of Ki-Ras by Western blot analysis
[21] = system: Protein farnesyltransferase subunit beta (Homo sapiens), P49356 [W102T,Y365F]; assay: Binding affinity to FTase W102T/Y365F mutant assessed as prenylation of CFP-CAAX by Western blot analysis
[22] = system: Protein farnesyltransferase subunit beta (Homo sapiens), P49356 [W102T,Y365F]; assay: Binding affinity to FTase W102T/Y365F mutant assessed as prenylation of Ki-Ras by ESI-MS analysis
[23] = system: Protein farnesyltransferase subunit beta (Homo sapiens), P49356 [W102T,Y365F]; assay: Binding affinity to FTase W102T/Y365F mutant assessed as prenylation of CFP-CAAX by ESI-MS analysis
[24] = system: Geranylgeranyl transferase type-1 subunit beta (Homo sapiens), P53609 [Y126T]; assay: Binding affinity to GGTase-1 Y126T mutant assessed as prenylation of RhoA GTPase by Western blot method
[25] = Binding affinity to GGTase-1 F53Y/Y126T mutant assessed as prenylation of RhoA GTPase by Western blot method
[26] = Binding affinity to GGTase-1 F53Y/Y126T mutant assessed as prenylation of dansyl-labeled GCVLS by fluorescence based assay
[27] = Binding affinity to GGTase-1 F53Y/Y126T mutant assessed as prenylation of dansyl-labeled GCVLL by fluorescence based assay
COS-7 [28] = assay: Binding affinity to wild type FTase in african green monkey COS7 lysate assessed as prenylation of CFP-CAAX by Western blot method
[29] = system: Protein farnesyltransferase subunit beta (Homo sapiens), P49356 [W102T,Y154T]; assay: Binding affinity to FTase W102T/Y154T mutant in african green monkey COS7 lysate assessed as prenylation of CFP-CAAX by Western blot method; conditions: COS-7
[30] = system: Protein farnesyltransferase subunit beta (Homo sapiens), P49356 [W102T,Y154T,Y205T]; assay: Binding affinity to FTase W102T/Y154T/Y205T mutant in african green monkey COS7 lysate assessed as prenylation of CFP-CAAX by Western blot method; conditions: COS-7
COS-7 [31] = assay: Binding affinity to GGTase-1 F53Y/Y126T mutant in african green monkey COS7 lysate assessed as prenylation of RhoA by Western blot method
[32] = system: Geranylgeranyl transferase type-1 subunit beta (Homo sapiens), P53609 [F52Y,F53Y,Y126T]; assay: Binding affinity to GGTase-1 F52Y/F53Y/Y126T mutant in african green monkey COS7 lysate assessed as prenylation of RhoA by Western blot method; conditions: COS-7
[33] = system: Protein farnesyltransferase subunit beta (Homo sapiens), P49356 [W102T,Y154T,Y205T]; assay: Binding affinity at FTase W102T/Y154T/Y205T mutant in african green monkey COS7 lysate assessed as protein prenylation by two-dimensional SDS-PAGE method; conditions: COS-7
COS-7 [34] = assay: Binding affinity to GGTase-1 F53Y/Y126T mutant in african green monkey COS7 lysate assessed as protein prenylation by two-dimensional SDS-PAGE method
COS-7 [35] = assay: Binding affinity to RabGGTase in african green monkey COS7 lysate assessed as prenylation of Rab by two-dimensional SDS-PAGE method
[36] = system: Geranylgeranyl transferase type-1 subunit beta (Homo sapiens), P53609 [F52Y,Y126T]; assay: Binding affinity to GGTase-1 F52Y/Y126T mutant assessed as prenylation of RhoA GTPase by Western blot method
Chain of Geranylgeranyl transferase type-1 subunit beta (Homo sapiens), P53609 [F52Y,Y126T] (P53609 whole entry F52Y/Y126T): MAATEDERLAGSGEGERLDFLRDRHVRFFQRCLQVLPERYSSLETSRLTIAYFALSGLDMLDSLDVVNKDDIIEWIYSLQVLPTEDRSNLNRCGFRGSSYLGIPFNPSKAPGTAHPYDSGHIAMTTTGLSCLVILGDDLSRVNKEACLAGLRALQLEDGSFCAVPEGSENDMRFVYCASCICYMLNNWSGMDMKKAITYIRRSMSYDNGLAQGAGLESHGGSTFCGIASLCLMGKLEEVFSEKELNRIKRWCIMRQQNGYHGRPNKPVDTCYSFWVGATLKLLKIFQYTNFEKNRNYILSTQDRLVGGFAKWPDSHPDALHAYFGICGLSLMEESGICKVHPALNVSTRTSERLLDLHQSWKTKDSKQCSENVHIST

Chain of Protein farnesyltransferase subunit beta (Homo sapiens), P49356 [W102T] (P49356 whole entry W102T): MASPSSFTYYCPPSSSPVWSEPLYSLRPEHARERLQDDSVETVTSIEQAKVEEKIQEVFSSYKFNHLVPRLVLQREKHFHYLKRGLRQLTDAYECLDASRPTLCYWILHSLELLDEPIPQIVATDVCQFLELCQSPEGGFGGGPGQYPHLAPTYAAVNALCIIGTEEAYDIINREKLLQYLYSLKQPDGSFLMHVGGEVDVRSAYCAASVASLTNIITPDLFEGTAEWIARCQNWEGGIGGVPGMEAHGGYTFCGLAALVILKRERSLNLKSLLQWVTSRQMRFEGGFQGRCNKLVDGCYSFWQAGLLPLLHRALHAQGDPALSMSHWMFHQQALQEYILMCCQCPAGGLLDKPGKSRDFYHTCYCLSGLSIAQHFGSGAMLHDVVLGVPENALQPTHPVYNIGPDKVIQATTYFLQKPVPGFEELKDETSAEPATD
Chain of Protein farnesyltransferase subunit beta (Homo sapiens), P49356 [Y154T] (P49356 whole entry Y154T): as the sequence (P49356 whole entry W102T) above, with T102W, Y154T counted along it
Chain of Protein farnesyltransferase subunit beta (Homo sapiens), P49356 [W102T,Y365F] (P49356 whole entry W102T/Y365F): as the sequence (P49356 whole entry W102T) above, with Y365F counted along it
Chain of Protein farnesyltransferase subunit beta (Homo sapiens), P49356 [W102T,Y154T] (P49356 whole entry W102T/Y154T): as the sequence (P49356 whole entry W102T) above, with Y154T counted along it
Chain of Protein farnesyltransferase subunit beta (Homo sapiens), P49356 [W102T,Y154T,Y205T] (P49356 whole entry W102T/Y154T/Y205T): as the sequence (P49356 whole entry W102T) above, with Y154T, Y205T counted along it
Chain of Geranylgeranyl transferase type-1 subunit beta (Homo sapiens), P53609 [F52Y,F53Y,Y126T] (P53609 whole entry F52Y/F53Y/Y126T): as the sequence (P53609 whole entry F52Y/Y126T) above, with F53Y counted along it
Chain of Geranylgeranyl transferase type-1 subunit beta (Homo sapiens), P53609 [Y126T] (P53609 whole entry Y126T): as the sequence (P53609 whole entry F52Y/Y126T) above, with Y52F counted along it

C/C(=C\COP(=O)(O)OP(=O)(O)O)CC/C=C(\C)CNC(=O)CCCC[C@@H]1SC[C@@H]2NC(=O)N[C@@H]21 [biotin-geranylpyrophosphate]
active: Activity [3] | Activity [4] | Activity [7] | Activity [8] | Activity [9] | Activity [10] | Activity [11] | Activity [24] | Activity [25] | Activity (COS-7 [28]) | Activity [29] | Activity [30] | Activity (COS-7 [31]) | Activity [32] | Activity [33] | Activity (COS-7 [34]) | Activity (COS-7 [35])
8.66: pKd [2]
inactive: Activity [5] | Activity [6] | Activity [12] | Activity [13] | Activity [14] | Activity [15] | Activity [16] | Activity [17] | Activity [18] | Activity [19] | Activity [20] | Activity [21] | Activity [22] | Activity [23] | Activity [26] | Activity [27] | Activity [36]
7.35: pKd [1]
